These are literature values, as cited in patent US12697315B2, “Treatment for interstitial lung disease” (United Therapeutics Corporation, priority 2020, dated 2026).

SMILES strings stand for the structures. Read-outs that look alike come from different tables or passages of the source.

The test system of the data set is IPF. The settings on record: 52 weeks, cited from earlier work.

In the case of `COC(=O)c1ccc2c(c1)NC(=O)/C2=C(\Nc1ccc(N(C)C(=O)CN2CCN(C)CC2)cc1)c1ccccc1` [Nintedanib, nintedanib], the “FVC % predicted, placebo corrected, rate of decline” value is reported as 3.2 % predicted and the “FVC, placebo corrected, rate of decline” value is ~ 109 mL.

As for `Cc1ccc(=O)n(-c2ccccc2)c1` [Pirfenidone, pirfenidone], where the note is “pirfenidone”, the “FVC, placebo corrected, rate of decline” value was 153 to 193 mL.
